# Source: US20170290774A1, “NEUROKININ-1 RECEPTOR ANTAGONIST COMPOSITION FOR TREATMENT OF DISEASES AND CONDITIONS OF THE RESPIRATORY TRACT” (PLUS VITECH, S.L., priority 2014, published 2017)
# What was measured:
# [1] = Saturation concentration in olive oil:ethanol (9:1); format: physicochemical; conditions: 25° C.
# Method: Each of said mixtures was continuously and gently stirred for 10 minutes at ambient temperature (25° C.) and then maintained at rest for 60 minutes. The saturation concentration was considered to be that which was immediately less than a concentration where deposition was observed, but in which no deposition of the active ingredient was observed.
# MMP-7 = assay: Immunohistochemistry of MMP-7 in respiratory tract tissue of sodium hypochlorite aerosol-treated rabbits; format: in vivo, New Zealand albino rabbits
# From the text: It is known that the factors TGF-α, TGF-β 1, TGF-β 2, TGF-β 3, SPARC, MMP-3; MMP-7, MMP-9, MMP-11, MMP-13 and MMP-14, TGF-β, NF-kB, EGF, MMP-9, VEGF and TNF-α which are produced by lung cells (pneumocytes, fibroblasts and vascular endothelial cells) and inflammatory cells (macrophages, lymphocytes and polymorphonuclear leukocytes) are involved in the pathophysiology and development of said respiratory tract diseases. […] Herein, 27 New Zealand albino rabbits (New Zealand White Rabbit) with an initial average weight about 3 kg were used in this example. All subjects were administered an aerosol of a solution consisting of a mixture of water and sodium hypochlorite (35 g sodium hypochlorite per liter of water) at a rate of 5 mL of said solution by inhalation three times a day for 7 days (days 1 to 7 of experimentation). Subsequently, from days 3 to 7, a group of 3 rabbits (Group 1) was administered an oral dose of 10 mg/kg body weight per day, another group of 3 rabbits (Group 2) was administered an oral dose of 40 mg/kg body weight per day, a third group (Group 3) was administered an oral dose of 80 mg/kg body weight per day and a fourth group (Group 4) was administered an oral dose of 100 mg/kg body weight per day. […] This mixture was administered as an aerosol by inhalation, also from days 3 to 7, to a group of 3 rabbits (group 5) at a dose of 0.05 mg/kg body weight per day, to another group of three rabbits (Group 6) at a dose of 0.1 mg/kg body weight per day, to another group of three rabbits (Group 7) at a dose of 0.2 mg/kg body weight per day and to another group of three rabbits (Group 8) at a dose of 0.4 mg/kg body weight per day. A placebo consisting only of olive oil was administered from days 3 to 7 to a control group of 3 rabbits (placebo group). In parallel, 3 rabbits were kept under identical conditions but were not administered any treatment nor the aforementioned sodium hypochlorite solution (control group). […] On day 7 of the experiment all animals were euthanized and necropsied. […] Samples were taken at the peripheral level of the lung parenchyma, just below the pleural surface. Tissue samples were also taken from the nasal cavity, pharynx, larynx and bronchi. Immunohistochemistry studies were performed for all samples to evaluate the levels of the markers TGF-α, TGF-β 1, TGF-β 2, TGF-β 3 SPARC, MMP-3; MMP-7, MMP-9, MMP-11, MMP-14, TGF-β, TNF-α and VEGF. In said immunohistochemistry studies, a sample of each sample was dehydrated by treatment with increasing concentrations of ethanol and finally xylene. Subsequently said dried samples were embedded in paraffin, thus creating a block. Said paraffin blocks were cut on a microtome to a thickness of 5 μm, and the resulting sections (slices) were placed on slides suitable for conducting immunohistochemistry techniques. Subsequently, the sections were deparaffinised by immersion in xylene and then rehydrated through immersion in a series of solutions containing decreasing concentrations of ethanol and, finally, water. […] The samples were then allowed to cool to room temperature over 10 minutes. Endogenous peroxidase activity was blocked by treatment with 3% hydrogen peroxide over 30 min at room temperature. […] In order to verify the expression of NK1 receptors, the cell samples were incubated in the presence of anti-NK1 antibodies ([…], Sigma-Aldrich) diluted 1:1000 at 4° C. overnight. After this time they were washed in 0.05M Tris buffer at room temperature. Subsequently, Envision System-HRP (Dako) reagents were added for 30 min at room temperature. Once this time had expired, the samples were again washed with 0.05 M Tris buffer, and immunoreactivity was visualized by light microscopy with a chromogenic solution with 3,3'-diaminobenzidine (DAB+; Dako, USA). In order to differentiate the cell nuclei, these were lightly stained with haematoxylin. Samples that were not incubated with the primary antibody, but wherein this was replaced by a non-immune serum were used as negative controls. […]
structure (smiles),measurement,setting,value
"C[C@@H](OC1OCCN(Cc2nc(=O)[nH][nH]2)C1c1ccc(F)cc1)c1cc(C(F)(F)F)cc(C(F)(F)F)c1 (stereo in doubt) [Aprepitant, 5-([(2R,3S)-2-((R)-1-[3,5-bis(trifluoromethyl)phenyl]ethoxy)-3-(4-fluorophenyl)morpholino]methyl)-1H-1,2,4-triazol-3(2H)-one]",Saturation concentration,[1],80 nM
same,Percent increase in MMP-7 with respect to the control group,"MMP-7; bronchial tissue, Group 1, oral 10 mg/kg per day",504.23%
same,Percent increase in MMP-7 with respect to the control group,"MMP-7; bronchial tissue, Group 2, oral 40 mg/kg per day",406.34%
same,Percent increase in MMP-7 with respect to the control group,"MMP-7; bronchial tissue, Group 3, oral 80 mg/kg per day",398.45%
same,Percent increase in MMP-7 with respect to the control group,"MMP-7; bronchial tissue, Group 4, oral 100 mg/kg per day",289.56%
same,% Med G5/C: percent increase in marker MMP-7 with respect to the control group,"MMP-7; bronchial tissue, Group 5",549.34%
same,% Med G6/C: percent increase in marker MMP-7 with respect to the control group,"MMP-7; bronchial tissue, Group 6",467.45%
same,% Med G7/C: percent increase in marker MMP-7 with respect to the control group,"MMP-7; bronchial tissue, Group 7",356.47%
same,% Med G8/C: percent increase in marker MMP-7 with respect to the control group,"MMP-7; bronchial tissue, Group 8",241.56%
same,Percent increase in MMP-7 with respect to the control group,"MMP-7; laryngeal tissue, Group 1, oral 10 mg/kg per day","1,012.67%"
same,Percent increase in MMP-7 with respect to the control group,"MMP-7; laryngeal tissue, Group 2, oral 40 mg/kg per day",899.78%
same,Percent increase in MMP-7 with respect to the control group,"MMP-7; laryngeal tissue, Group 3, oral 80 mg/kg per day",788.56%
same,Percent increase in MMP-7 with respect to the control group,"MMP-7; laryngeal tissue, Group 4, oral 100 mg/kg per day",576.89%
same,Percent increase in MMP-7 with respect to the control group,"MMP-7; laryngeal tissue, Group 5, inhalation 0.05 mg/kg per day","1,205.45%"
same,Percent increase in MMP-7 with respect to the control group,"MMP-7; laryngeal tissue, Group 6, inhalation 0.1 mg/kg per day",809.54%
same,Percent increase in MMP-7 with respect to the control group,"MMP-7; laryngeal tissue, Group 7, inhalation 0.2 mg/kg per day",372.23%
same,Percent increase in MMP-7 with respect to the control group,"MMP-7; laryngeal tissue, Group 8, inhalation 0.4 mg/kg per day",112.25%
same,Percent increase in MMP-7 with respect to the control group,"MMP-7; lung tissue, Group 1, oral 10 mg/kg per day",345.90%
same,Percent increase in MMP-7 with respect to the control group,"MMP-7; lung tissue, Group 2, oral 40 mg/kg per day",325.50%
same,Percent increase in MMP-7 with respect to the control group,"MMP-7; lung tissue, Group 3, oral 80 mg/kg per day",220.38%
same,Percent increase in MMP-7 with respect to the control group,"MMP-7; lung tissue, Group 4, oral 100 mg/kg per day",184.56%
same,Percent increase in MMP-7 with respect to the control group,"MMP-7; lung tissue, Group 5, inhalation 0.05 mg/kg per day",321.48%
same,Percent increase in MMP-7 with respect to the control group,"MMP-7; lung tissue, Group 6, inhalation 0.1 mg/kg per day",232.63%
same,Percent increase in MMP-7 with respect to the control group,"MMP-7; lung tissue, Group 7, inhalation 0.2 mg/kg per day",142.07%
same,Percent increase in MMP-7 with respect to the control group,"MMP-7; lung tissue, Group 8, inhalation 0.4 mg/kg per day",109.05%
same,Percent increase in MMP-7 with respect to the control group,"MMP-7; nasal cavity tissue, Group 1, oral 10 mg/kg per day","2,267.10%"
same,Percent increase in MMP-7 with respect to the control group,"MMP-7; nasal cavity tissue, Group 2, oral 40 mg/kg per day","1,308.16%"
same,Percent increase in MMP-7 with respect to the control group,"MMP-7; nasal cavity tissue, Group 3, oral 80 mg/kg per day","1,119.62%"
same,Percent increase in MMP-7 with respect to the control group,"MMP-7; nasal cavity tissue, Group 4, oral 100 mg/kg per day",942.01%
same,Percent increase in MMP-7 with respect to the control group,"MMP-7; nasal cavity tissue, Group 5, inhalation 0.05 mg/kg per day","1,835.98%"
same,Percent increase in MMP-7 with respect to the control group,"MMP-7; nasal cavity tissue, Group 6, inhalation 0.1 mg/kg per day","1,147.87%"
same,Percent increase in MMP-7 with respect to the control group,"MMP-7; nasal cavity tissue, Group 7, inhalation 0.2 mg/kg per day",444.94%
same,Percent increase in MMP-7 with respect to the control group,"MMP-7; nasal cavity tissue, Group 8, inhalation 0.4 mg/kg per day",136.90%
same,Percent increase in MMP-7 with respect to the control group,"MMP-7; pharyngeal tissue, Group 1, oral 10 mg/kg per day","2,004.34%"
same,Percent increase in MMP-7 with respect to the control group,"MMP-7; pharyngeal tissue, Group 2, oral 40 mg/kg per day","1,591.34%"
same,Percent increase in MMP-7 with respect to the control group,"MMP-7; pharyngeal tissue, Group 3, oral 80 mg/kg per day","1,456.45%"
same,Percent increase in MMP-7 with respect to the control group,"MMP-7; pharyngeal tissue, Group 4, oral 100 mg/kg per day",967.12%
same,Percent increase in MMP-7 with respect to the control group,"MMP-7; pharyngeal tissue, Group 5, inhalation 0.05 mg/kg per day","1,820.78%"
same,Percent increase in MMP-7 with respect to the control group,"MMP-7; pharyngeal tissue, Group 6, inhalation 0.1 mg/kg per day","1,109.45%"
same,Percent increase in MMP-7 with respect to the control group,"MMP-7; pharyngeal tissue, Group 7, inhalation 0.2 mg/kg per day",450.45%
same,Percent increase in MMP-7 with respect to the control group,"MMP-7; pharyngeal tissue, Group 8, inhalation 0.4 mg/kg per day",121.80%
